# Activity calls are given as the source filed them. The calls are words filed in the database; no cut-off is given here. Where a SMILES comes first, the peptide text is derived from it.
# Legend:
# [1] = target: T1, Tyrosinase (Mus musculus) (UniProt P11344); assay: Inhibition of TYR activity in mouse B16 cells assessed as melanin levels post exfoliation at 20 uM after 72 hrs by spectrophotometric analysis relative to control; format: cell-based; parameters: scale not given: the % may be the effect or the level left
# T1 sequence (whole entry): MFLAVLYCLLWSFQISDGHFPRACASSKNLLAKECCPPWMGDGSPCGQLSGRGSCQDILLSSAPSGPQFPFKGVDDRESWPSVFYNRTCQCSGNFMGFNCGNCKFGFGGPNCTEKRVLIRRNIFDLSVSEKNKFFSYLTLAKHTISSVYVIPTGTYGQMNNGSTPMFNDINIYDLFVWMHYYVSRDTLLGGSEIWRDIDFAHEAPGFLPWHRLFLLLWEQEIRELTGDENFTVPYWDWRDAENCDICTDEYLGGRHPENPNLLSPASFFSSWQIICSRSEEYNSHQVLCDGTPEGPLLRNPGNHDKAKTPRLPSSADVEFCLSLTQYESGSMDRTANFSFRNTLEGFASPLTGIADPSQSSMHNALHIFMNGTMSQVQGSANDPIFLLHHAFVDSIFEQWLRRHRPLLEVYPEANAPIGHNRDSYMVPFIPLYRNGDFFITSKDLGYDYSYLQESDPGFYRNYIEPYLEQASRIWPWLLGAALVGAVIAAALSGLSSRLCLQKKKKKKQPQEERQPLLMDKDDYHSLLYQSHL
# HaCaT = assay: Cytotoxicity against human HaCaT cells up to 150 uM by MTT assay relative to control; format: cell-based
# [2] = Reducing power of the compound assessed as reducing Fe3+ power at 80 uM using K3Fe(CN)6 in pH 6.6 phosphate buffer relative to control
# B16 [3] = assay: Downregulation of TYR protein expression in mouse B16 cells after 72 hrs by Western blot analysis; format: functional, cell-based
# [4] = Antioxidant activity assessed as DPPH free radical scavenging activity at 80 uM after 30 mins relative to control; format: functional
# [5] = target: T2, Tyrosinase (Agaricus bisporus) (UniProt O42713); assay: Inhibition of mushroom tyrosinase using L-dopa as substrate assessed as reduction in L-dopa oxidation at IC50 by spectrophotometry
# T2 sequence (whole entry): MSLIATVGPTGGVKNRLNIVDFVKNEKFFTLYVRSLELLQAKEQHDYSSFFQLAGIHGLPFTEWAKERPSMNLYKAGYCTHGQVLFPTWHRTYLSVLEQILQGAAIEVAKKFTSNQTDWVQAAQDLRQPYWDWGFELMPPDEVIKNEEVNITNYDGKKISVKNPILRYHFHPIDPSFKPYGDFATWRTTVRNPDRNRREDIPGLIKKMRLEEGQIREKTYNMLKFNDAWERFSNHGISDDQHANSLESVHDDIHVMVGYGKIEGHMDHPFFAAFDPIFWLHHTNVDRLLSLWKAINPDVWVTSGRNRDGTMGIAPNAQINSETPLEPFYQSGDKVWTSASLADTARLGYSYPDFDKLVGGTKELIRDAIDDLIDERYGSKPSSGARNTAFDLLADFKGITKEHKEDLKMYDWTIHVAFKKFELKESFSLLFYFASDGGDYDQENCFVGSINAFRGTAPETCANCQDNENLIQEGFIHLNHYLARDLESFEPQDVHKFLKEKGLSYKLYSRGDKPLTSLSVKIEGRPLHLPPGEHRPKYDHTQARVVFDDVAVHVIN
# [6] = Hemolytic activity against human erythrocytes assessed as amount of hemoglobin released from lysed cells up to 150 uM relative to control; format: ADME, cell-based, Erythrocyte; conditions: read-out: Activity
# Tyrosinase = target: T3, Tyrosinase (Agaricus bisporus, UniProt O42713); assay: Inhibition of mushroom tyrosinase using L-dopa as substrate assessed as reduction in dopachrome production after 20 mins by spectrophotometry
# T3 sequence (O42713 whole entry): T2 sequence (whole entry)
# B16 [7] = assay: Downregulation of MITF protein expression in mouse B16 cells after 72 hrs by Western blot analysis; format: functional, cell-based
# [8] = target: T2, Tyrosinase (Agaricus bisporus); assay: Potency index, ratio of IC50 for arbutin to IC50 for test compound for inhibition of mushroom tyrosinase using L-dopa as substrate assessed as reduction in dopachrome production after 20 mins by spectrophotometry
# [9] = target: T1, Tyrosinase (Mus musculus); assay: Inhibition of TYR activity in mouse B16 cells assessed as reduction in melanin levels at 20 uM after 24 hrs by spectrophotometric analysis relative to control; format: cell-based
# B16 [10] = assay: Cytotoxicity against mouse B16 cells up to 150 uM by MTT assay relative to control; format: cell-based
# [11] = Antioxidant activity assessed as ABTS radical scavenging activity at 80 uM after 10 mins relative to control; format: functional
# [12] = target: T1, Tyrosinase (Mus musculus); assay: Inhibition of TYR activity in mouse B16 cells assessed as increase in whitening at 20 uM preincubated for 72 hrs followed L-dopa substrate addition and measured after 4 hrs by fluorescence microscopy; format: cell-based
# [13] = target: T1, Tyrosinase (Mus musculus); assay: Inhibition of TYR activity in mouse B16 cells 20 uM using L-dopa as substrate after 72 hrs relative to control; format: cell-based
# [14] = target: T1, Tyrosinase (Mus musculus); assay: Inhibition of TYR activity in mouse B16 cells assessed as effect on pallet after exfoliation at 20 uM preincubated for 72 hrs followed L-dopa substrate addition and measured after 4 hrs by fluorescence microscopy; format: cell-based
Compound,Activity [1] [%],Activity (HaCaT) [%],Activity [2],inhibition (B16 [3]),Activity [4] [%],inhibition [5],hemolysis [6] [%],IC50 (Tyrosinase) [µM],inhibition (B16 [7]),Ratio IC50 [8],inhibition [9],Activity (B16 [10]) [%],Activity [11] [%],inhibition [12],inhibition [13] [%],Activity [14]
CC(C)[C@H](NC(=O)[C@H](CO)NC(=O)[C@H](CCCNC(=N)N)NC(=O)[C@H](CS)NC(=O)[C@@H](NC(=O)[C@H](CCCNC(=N)N)NC(=O)[C@@H](N)Cc1ccccc1)[C@@H](C)O)C(=O)N[C@@H](CS)C(=O)O (H-FRTCRSVC-OH),63.5,2,0.25,Active,94,Active,3,73,Active,10,Active,3,84,Active,16,Active
OC[C@H]1O[C@@H](Oc2ccc(O)cc2)[C@H](O)[C@@H](O)[C@@H]1O [ARBUTIN],76.3,31,0.12,inactive,22,–,27,–,inactive,–,–,29,53,Active,10.4,Active
